# Laboratory results as given in article PMC12339328, “Therapeutic effect and mechanism of gigantol on hyperuricemia” (Frontiers in Endocrinology, 2025).
# Where “and” joins values, the source holds several entries; their conditions need not be identical. Equal values may be shown once.
# Key:
# NLRP3 = NLRP3 protein expression in HK-2 cells (Western blot); settings: HK-2; 阳性 = allopurinol 100 µmol/L; replicates 1-3
# OAT3 [1] = experiment: OAT3 protein expression in kidney of HUA mice (Western blot); settings: allopurinol 10 mg/kg, p > 0.05
# XOD [2] = settings: HUA cell model; allopurinol 100 μmol/L; vs model; p < 0.001
# GLUT9 [3] = experiment: GLUT9 protein expression in HK-2 cells (Western blot); settings: HK-2; 阳性 = allopurinol 100 µmol/L; replicates 1-3
# GLUT9 [4] = experiment: GLUT9 protein expression in kidney of HUA mice (Western blot); assay type: in vivo; settings: allopurinol 10 mg/kg, p > 0.05
# [5] = Pharmacokinetics in rats (LC-MS/MS, WinNonlin); settings: for MRT inf: MRT(0-∞); for Cmax: C max; for Tmax: T max
# Description: Whole blood was taken into heparinized tubes at predefined time points (2, 5, 10, 20, and 30 min, and 1, 2, 4, 6, 8, and 12 h) after administration, and plasma was separated by centrifugation and stored at −20°C until testing. […] Whole blood was taken into heparinized tubes at predefined time points (2, 5, 10, 20, and 30 min, and 1, 2, 4, 6, 8, and 12 h) after administration, and plasma was separated by centrifugation and stored at −20°C until testing. […] Pharmacokinetic parameters were calculated by using the pharmacokinetics software WinNonlin 8.1.
# XOD [6] = system: XOD
# Caspase-1 = Caspase-1 protein expression in HK-2 cells (Western blot); settings: HK-2; 阳性 = allopurinol 100 µmol/L; replicates 1-3
# OAT1 [7] = experiment: OAT1 protein expression in kidney of HUA mice (Western blot); settings: allopurinol 10 mg/kg, p > 0.05
# OAT1 [8] = experiment: OAT1 protein expression in HK-2 cells (Western blot); settings: HK-2; 阳性 = allopurinol 100 µmol/L; replicates 1-3
# ASC = ASC protein expression in HK-2 cells (Western blot); settings: HK-2; 阳性 = allopurinol 100 µmol/L; replicates 1-3
# OAT3 [9] = experiment: OAT3 protein expression in HK-2 cells (Western blot); settings: HK-2; 阳性 = allopurinol 100 µmol/L; replicates 1-3
# [10] = Sprague-Dawley, rat, plasma, iv, 5 mg/kg, rats, allopurinol intravenous 5 mg/kg, Average
# [11] = Sprague-Dawley, rat, plasma, iv, 5 mg/kg, rats, allopurinol intravenous 5 mg/kg, individual rats
# [12] = Sprague-Dawley, rat, plasma, po, 50 mg/kg, rats, allopurinol gavage 50 mg/kg, Average
# [13] = Sprague-Dawley, rat, plasma, po, 50 mg/kg, rats, allopurinol gavage 50 mg/kg, individual rats
# [14] = rats, allopurinol gavage 50 mg/kg, individual rats, 50 mg/kg
# [15] = rats, allopurinol intravenous 5 mg/kg, individual rats, 5 mg/kg
smiles,measurement,setting,value
Oc1ncnc2[nH]ncc12 [allopurinol],"NLRP3 protein expression, band value",NLRP3,163.939 and 177.621 and 186.105
same,OAT3 protein expression in kidney,OAT3 [1],did not show significant effects
same,XOD activity in AML12 cells,XOD [2],significantly downregulate
same,"GLUT (GLUT9) protein expression, band value",GLUT9 [3],146.392 and 138.006 and 144.372
same,GLUT9 protein expression in kidney,GLUT9 [4],did not show significant effects
same,AUC(0-t),"[5]; Sprague-Dawley, rat, plasma, iv, 5 mg/kg, AUC(0-t), rats, allopurinol intravenous 5 mg/kg, Average",179 ng·h/mL
same,AUC(0-inf),[5]; [10],209 ng·h/mL
same,AUC(0-inf),[5]; [11],170 ng·h/mL
same,C0,"[5]; Sprague-Dawley, rat, plasma, iv, 5 mg/kg, C 0, rats, allopurinol intravenous 5 mg/kg, Average",~225 ng/mL
same,C0,"[5]; Sprague-Dawley, rat, plasma, iv, 5 mg/kg, C 0, rats, allopurinol intravenous 5 mg/kg, individual rats",169 ng/mL
same,MRT inf,[5]; [10],0.79 h
same,MRT inf,[5]; [11],0.73 h
same,bioavailability,"[5]; Sprague-Dawley, rat, plasma, oral, F (absolute bioavailability), rats, allopurinol gavage 50 mg/kg vs intravenous 5 mg/kg",~314%
same,AUC(0-t),"[5]; Sprague-Dawley, rat, plasma, po, 50 mg/kg, AUC(0-t), rats, allopurinol gavage 50 mg/kg, Average",6470 ng·h/mL
same,AUC(0-t),"[5]; Sprague-Dawley, rat, plasma, po, 50 mg/kg, AUC(0-t), rats, allopurinol gavage 50 mg/kg, individual rats",6290 ng·h/mL
same,AUC(0-inf),[5]; [12],~6580 ng·h/mL
same,AUC(0-inf),[5]; [13],6430 ng·h/mL
same,Cmax,[5]; [12],~1350 ng/mL
same,Cmax,[5]; [13],1310 ng/mL
same,MRT inf,[5]; [12],2.5 h
same,MRT inf,[5]; [13],2.06 h
same,Tmax,[5]; [12],1 to 2 h
same,Tmax,[5]; [13],2 h
same,V/F,"[5]; rats, allopurinol gavage 50 mg/kg, Average",14.28 L/kg
same,T max,"[5]; rats, allopurinol gavage 50 mg/kg, Average, 50 mg/kg",1.33 h
same,AUC(0-t),[5]; [14],"6,239.00 h·µg/L and 6,870.26 h·µg/L"
same,AUC(0-∞),[5]; [14],"6,374.71 h·µg/L and 6,922.57 h·µg/L"
same,C max,[5]; [14],"1,440.00 µg/L and 1,310.00 µg/L"
same,MRT(0-∞),[5]; [14],2.68 h and 2.75 h
same,V/F,[5]; [14],15.75 L/kg and 15.77 L/kg and 11.31 L/kg
same,V,"[5]; rats, allopurinol intravenous 5 mg/kg, Average",19.62 L/kg
same,AUC(0-t),[5]; [15],186.21 ng·h/mL and 225.15 ng·h/mL
same,AUC(0-∞),[5]; [15],207.21 µg·h/L and 250.23 µg·h/L
same,C0,[5]; [15],223.22 ng/mL and 281.70 ng/mL
same,MRT(0-∞),[5]; [15],0.81 h and 0.83 h
same,V,[5]; [15],20.68 L/kg and 20.60 L/kg and 17.58 L/kg
same,"xod protein expression, band value","XOD [6]; AML12, 阳性 = allopurinol 100 µmol/L, replicates 1-3",155.965 and 209.523 and 140.271
same,XOD protein expression in AML12 cells,"XOD [6]; HUA cell model, allopurinol 100 µmol/L, vs model group",significantly downregulate
same,"CASPASE protein expression, band value",Caspase-1,147.442 and 190.729 and 189.372
same,OAT1 protein expression in kidney,OAT1 [7],did not show significant effects
same,"OAT1 protein expression, band value",OAT1 [8],174.983 and 217.222 and 169.712
same,"asc protein expression, band value",ASC,163.648 and 185.065 and 186.261
same,"OAT3 protein expression, band value",OAT3 [9],160.43 and 183.946
